The test system of test [1] is Mus musculus. The experiment in a line: Nephroprotective activity against cisplatin-induced acute kidney injury in male C57BL/6 mouse assessed as plasma SCr concentration at 10 mg/kg/day, ip. The format is functional.
The test system of test [2] is HK-2. The experiment in a line: Antiproliferative activity against human HK-2 cells assessed as decrease in cell viability at 0.78 uM measured after 24 hrs by CCK-8 assay. The format is functional. Background: Formazan colour is commonly taken as a measure of viable cells.
The test system of test [3] is Mus musculus. The experiment in a line: Nephroprotective activity against cisplatin-induced acute kidney injury in male C57BL/6 mouse assessed as plasma BUN concentration at 10 mg/kg/day, ip. The test is classed as functional.
The subject of test [4] is Mus musculus. The experiment in a line: Nephroprotective activity against cisplatin-induced acute kidney injury in male C57BL/6 mouse assessed as serum EPO level at 10 mg/kg/day, ip. The format is functional.
The test system of test [5] is HK-2. The experiment in a line: Antiproliferative activity against human HK-2 cells assessed as decrease in cell viability at 50 uM measured in presence of 10 uM cisplatin after 24 hrs by CCK-8 assay. The test is classed as functional.
Test [6] concerns MCF7. The experiment in a line: Induction of apoptosis in human MCF7 cells assessed as apoptotic cell population at 50 uM measured by Annexin V-FITC/propidium iodide staining based flow cytometry assay. The test is classed as functional. (In general: In flow cytometry, cells or beads pass a laser one at a time.)
The subject of test [7] is MCF7. The experiment in a line: Antiproliferative activity against human MCF7 cells assessed as decrease in cell viability at 50 uM in presence of 100 uM cisplatin relative to control. The test is classed as functional.
Test [8] concerns A549. The experiment in a line: Induction of apoptosis in human A549 cells assessed as apoptotic cell population at 50 uM measured by Annexin V-FITC/propidium iodide staining based flow cytometry assay. The test is classed as functional.
Test [9] deals with A549. The experiment in a line: Antiproliferative activity against human A549 cells assessed as decrease in cell viability at 50 uM relative to control. The format is functional, cell-based.
A further test has as its target Histone deacetylase 1 (Homo sapiens, UniProt Q13547). The experiment in a line: Inhibition of HDAC1 (unknown origin) using trypsin and Ac-peptide as substrates.
For another test, the target named is Histone deacetylase 2 (Homo sapiens, UniProt Q92769).
Histone deacetylase 2, sequence (Q92769 whole entry): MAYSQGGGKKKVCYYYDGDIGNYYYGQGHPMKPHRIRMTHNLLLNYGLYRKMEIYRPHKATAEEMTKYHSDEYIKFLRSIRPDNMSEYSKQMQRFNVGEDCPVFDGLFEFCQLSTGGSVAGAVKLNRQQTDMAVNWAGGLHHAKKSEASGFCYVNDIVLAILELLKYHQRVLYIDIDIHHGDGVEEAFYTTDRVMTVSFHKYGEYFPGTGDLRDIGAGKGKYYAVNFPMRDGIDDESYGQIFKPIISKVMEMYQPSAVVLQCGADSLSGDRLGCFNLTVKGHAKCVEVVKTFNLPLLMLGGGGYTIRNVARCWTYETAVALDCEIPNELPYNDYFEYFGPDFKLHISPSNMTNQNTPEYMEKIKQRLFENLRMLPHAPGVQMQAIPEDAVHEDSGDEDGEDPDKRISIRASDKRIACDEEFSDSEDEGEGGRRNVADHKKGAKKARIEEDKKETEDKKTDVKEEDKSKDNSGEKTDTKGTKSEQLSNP
Test [10] deals with A549. The experiment in a line: Antiproliferative activity against human A549 cells assessed as decrease in cell viability at 50 uM in presence of 40 uM cisplatin relative to control. The format is functional.
Test [11] relates to MCF7. The experiment in a line: Antiproliferative activity against human MCF7 cells assessed as decrease in cell viability at 50 uM relative to control. The test is classed as functional, cell-based.
Another test has as its target Egl nine homolog 1 (Homo sapiens, UniProt Q9GZT9). The experiment in a line: Inhibition of PHD2 (unknown origin) measured by fluorescence polarization assay.
The test system of test [12] is A549. The experiment in a line: Induction of apoptosis in human A549 cells assessed as apoptotic cell population at 50 uM in presence of 100 uM cisplatin measured by Annexin V-FITC/propidium iodide staining based flow cytometry assay. The test is classed as functional.
Test [13] concerns Mus musculus. The experiment in a line: Nephroprotective activity against cisplatin-induced acute kidney injury in male C57BL/6 mouse assessed as decrease in expression of NGAL at 10 mg/kg/day, ip. The test is classed as functional, organism-based.
Another test has as its target Histone deacetylase 4 (Homo sapiens, UniProt P56524). The experiment in a line: Inhibition of HDAC4 (unknown origin) using trypsin and Ac-peptide as substrates.
Test [14] relates to Mus musculus. The experiment in a line: Nephroprotective activity against cisplatin-induced acute kidney injury in male C57BL/6 mouse assessed as decrease tubular injury at 10 mg/kg/day, ip. The test is classed as functional, organism-based.
The subject of test [15] is MCF7. The experiment in a line: Induction of apoptosis in human MCF7 cells assessed as apoptotic cell population at 50 uM in presence of 100 uM cisplatin measured by Annexin V-FITC/propidium iodide staining based flow cytometry assay. The test is classed as functional.
Test [16] deals with T1, Protein deacetylase HDAC6 (Homo sapiens, UniProt Q9UBN7).
T1 sequence (Q9UBN7 whole entry): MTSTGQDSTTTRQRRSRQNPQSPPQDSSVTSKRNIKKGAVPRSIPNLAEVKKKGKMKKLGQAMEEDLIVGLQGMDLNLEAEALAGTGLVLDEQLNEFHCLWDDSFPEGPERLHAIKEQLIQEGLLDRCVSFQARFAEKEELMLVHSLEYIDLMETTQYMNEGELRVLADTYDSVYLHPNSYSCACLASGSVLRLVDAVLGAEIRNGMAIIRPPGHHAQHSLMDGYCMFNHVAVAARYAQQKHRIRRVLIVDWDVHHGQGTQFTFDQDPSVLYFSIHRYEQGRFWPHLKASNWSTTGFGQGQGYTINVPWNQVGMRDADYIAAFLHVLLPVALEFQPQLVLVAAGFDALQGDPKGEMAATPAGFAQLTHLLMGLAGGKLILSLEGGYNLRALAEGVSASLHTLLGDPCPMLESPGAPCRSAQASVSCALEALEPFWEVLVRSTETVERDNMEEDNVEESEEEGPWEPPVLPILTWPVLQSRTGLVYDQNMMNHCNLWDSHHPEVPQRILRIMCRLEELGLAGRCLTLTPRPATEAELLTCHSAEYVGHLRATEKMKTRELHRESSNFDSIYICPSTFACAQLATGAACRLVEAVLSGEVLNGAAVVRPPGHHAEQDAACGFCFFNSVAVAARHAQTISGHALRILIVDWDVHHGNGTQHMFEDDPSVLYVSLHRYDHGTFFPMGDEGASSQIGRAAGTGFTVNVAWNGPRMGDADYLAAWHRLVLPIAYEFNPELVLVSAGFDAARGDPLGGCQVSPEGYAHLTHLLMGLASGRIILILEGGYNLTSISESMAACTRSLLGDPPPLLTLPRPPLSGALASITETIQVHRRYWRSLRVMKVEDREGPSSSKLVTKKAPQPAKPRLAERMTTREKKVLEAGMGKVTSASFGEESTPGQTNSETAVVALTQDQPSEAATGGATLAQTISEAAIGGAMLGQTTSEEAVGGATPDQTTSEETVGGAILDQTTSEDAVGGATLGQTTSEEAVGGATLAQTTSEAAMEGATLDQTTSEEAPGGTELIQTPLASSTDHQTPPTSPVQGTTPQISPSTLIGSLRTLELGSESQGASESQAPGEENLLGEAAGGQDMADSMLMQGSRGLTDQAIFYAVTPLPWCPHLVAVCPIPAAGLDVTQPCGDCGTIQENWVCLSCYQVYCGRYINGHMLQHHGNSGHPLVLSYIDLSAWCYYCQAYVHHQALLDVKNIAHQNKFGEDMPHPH
The experiment in a line: Inhibition of HDAC6 (unknown origin) using trypsin and Ac-peptide as substrates.

Calls of active or inactive are those of the source. No cut-off for these calls is given here.

Egl nine homolog 1, sequence (Q9GZT9 whole entry): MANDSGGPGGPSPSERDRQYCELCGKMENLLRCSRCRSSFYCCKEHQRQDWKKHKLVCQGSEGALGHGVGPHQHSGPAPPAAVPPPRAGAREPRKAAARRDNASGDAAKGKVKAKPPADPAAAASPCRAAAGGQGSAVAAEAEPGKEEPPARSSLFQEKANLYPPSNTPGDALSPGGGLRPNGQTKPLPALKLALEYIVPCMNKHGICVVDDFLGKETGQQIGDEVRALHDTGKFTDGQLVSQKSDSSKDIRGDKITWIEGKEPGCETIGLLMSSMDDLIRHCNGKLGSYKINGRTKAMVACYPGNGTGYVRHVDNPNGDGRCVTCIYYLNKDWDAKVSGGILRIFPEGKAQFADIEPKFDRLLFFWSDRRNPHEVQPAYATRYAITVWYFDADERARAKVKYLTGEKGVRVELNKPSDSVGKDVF
Histone deacetylase 1, sequence (Q13547 whole entry): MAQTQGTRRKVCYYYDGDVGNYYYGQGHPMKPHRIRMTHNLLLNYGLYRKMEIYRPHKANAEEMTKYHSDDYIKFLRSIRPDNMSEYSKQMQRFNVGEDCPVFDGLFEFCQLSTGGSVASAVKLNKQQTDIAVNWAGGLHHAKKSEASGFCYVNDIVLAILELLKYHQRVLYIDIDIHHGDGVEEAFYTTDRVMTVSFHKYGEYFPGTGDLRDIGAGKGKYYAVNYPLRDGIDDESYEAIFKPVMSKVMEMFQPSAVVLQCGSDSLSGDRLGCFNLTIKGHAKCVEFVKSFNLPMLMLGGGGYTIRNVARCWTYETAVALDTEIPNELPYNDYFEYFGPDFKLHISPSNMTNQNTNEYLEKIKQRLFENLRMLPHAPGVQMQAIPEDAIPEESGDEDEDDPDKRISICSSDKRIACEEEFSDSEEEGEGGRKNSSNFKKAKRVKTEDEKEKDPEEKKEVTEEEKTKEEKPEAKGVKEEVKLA
Histone deacetylase 4, sequence (P56524 whole entry): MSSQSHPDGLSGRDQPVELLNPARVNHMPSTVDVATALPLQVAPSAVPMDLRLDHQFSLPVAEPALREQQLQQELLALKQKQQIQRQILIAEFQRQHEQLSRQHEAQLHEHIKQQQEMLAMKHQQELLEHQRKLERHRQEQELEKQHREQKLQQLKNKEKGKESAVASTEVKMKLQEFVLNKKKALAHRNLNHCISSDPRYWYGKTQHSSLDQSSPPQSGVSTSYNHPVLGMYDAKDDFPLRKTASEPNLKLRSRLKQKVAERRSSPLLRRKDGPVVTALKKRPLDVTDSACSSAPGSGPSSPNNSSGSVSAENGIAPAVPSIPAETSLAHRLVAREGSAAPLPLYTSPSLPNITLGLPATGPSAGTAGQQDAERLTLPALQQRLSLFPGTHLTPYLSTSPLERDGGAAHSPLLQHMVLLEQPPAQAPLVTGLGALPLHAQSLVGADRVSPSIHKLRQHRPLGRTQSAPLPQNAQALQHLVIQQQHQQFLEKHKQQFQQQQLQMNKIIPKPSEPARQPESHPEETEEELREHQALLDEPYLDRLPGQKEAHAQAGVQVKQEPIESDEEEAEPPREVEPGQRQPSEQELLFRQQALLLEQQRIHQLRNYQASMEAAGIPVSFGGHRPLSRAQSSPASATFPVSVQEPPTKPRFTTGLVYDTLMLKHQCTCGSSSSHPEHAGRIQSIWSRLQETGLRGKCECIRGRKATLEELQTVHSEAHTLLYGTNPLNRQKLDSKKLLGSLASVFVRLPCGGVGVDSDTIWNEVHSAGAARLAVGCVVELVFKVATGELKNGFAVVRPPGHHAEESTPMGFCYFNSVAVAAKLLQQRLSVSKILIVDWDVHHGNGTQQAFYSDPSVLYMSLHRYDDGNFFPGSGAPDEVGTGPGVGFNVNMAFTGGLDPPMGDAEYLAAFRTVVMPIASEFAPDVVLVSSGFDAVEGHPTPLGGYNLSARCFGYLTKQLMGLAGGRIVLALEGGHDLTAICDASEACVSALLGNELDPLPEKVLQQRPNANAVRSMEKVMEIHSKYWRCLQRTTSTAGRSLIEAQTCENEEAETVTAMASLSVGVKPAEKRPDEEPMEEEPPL

As for `CC(/C=C/C(=O)NO)=C\[C@@H](C)C(=O)c1ccc(N(C)C)cc1` [TRICHOSTATIN], the Activity with Mus musculus [1] was determined as 0.129 mmol/L; in the test on HK-2 [2], 70%; with Mus musculus [3] it was 8.86 mmol/L.

Consider `Cc1nc(C(=O)NCC(=O)O)c(O)c2ccc(Oc3ccccc3)cc12` [ROXADUSTAT], for which the Activity in the test on Mus musculus [4] came to 23.46 mIU/ml; in the test on HK-2 [5], 71.12%; in the test on Mus musculus [1] it was 0.0947 mmol/L; in the test with Mus musculus [3], 13.91 mmol/L.

Usually IC50 stands for the concentration that inhibits the measured activity by half. High values mean weaker potency in that assay, low ones greater potency in that assay. In the case of `O=C(NO)c1cnc(N2CCC(NC(=O)c3cnc(-n4cccn4)nc3O)CC2)nc1`, the Activity in the test with MCF7 [6] is 19.3%; in the test on MCF7 [7] it was 36.83%; in the test on A549 [8], 4.9%; in the test on A549 [10], 39.09%; in the test with Mus musculus [4], 15.34 mIU/ml; in the test with A549 [12], 13.2%. The Activity in the test with HK-2 [5] worked out at 61.96%; with MCF7 [15], 26.6%; in the test with Mus musculus [1] it was 0.0311 mmol/L; in the test on Mus musculus [3] it was 10.86 mmol/L. For the same compound, the result in the test on A549 [9], in the test on MCF7 [11], with Mus musculus [13] and in the test on Mus musculus [14] was Active. Besides, the concentration for half-maximal inhibition (IC50) was found to be 19.8 nM against Histone deacetylase 1; 26.6 nM against Histone deacetylase 2; 1150 nM against Egl nine homolog 1; 1170 nM at Histone deacetylase 4; 16 nM in [16].

For the origin of these results see ChEMBL document CHEMBL5154698, “Novel PHD2/HDACs hybrid inhibitors protect against cisplatin-induced acute kidney injury” (Eur J Med Chem, 2022).
